# Reference: US9914955B2, “Genetically encoded FRET-based MMP-9 activity biosensor and use thereof” (Instytut Biologii Doświadczalnej im. Marcelego Nenckiego …, priority 2013, dated 2018)
# What was measured:
# HEK293 cell lysate = experiment: Baseline cleavage of the biosensor in untreated HEK293 lysate, western blot; type: biochemical
# Description: Two days post-transfection HEK293 cells were washed one with PBS, scraped from the plate and lysed for 1 h at 4° C. with the following buffer: 50 mM Tris-Cl pH 7.5, 1% Triton X-100, 10 mM CaCl2, 0.02% NaN3, 1 μM ZnCl2. The lysis was performed without protease inhibitors since it was feared that they might block the activity of our auto-activating MMP-9. The lysate was then centrifuged at 13400 rpm for 15′ at 4° C. to remove cell debris. Equal amount of the cleared lysate were used in the subsequent reactions. […] GM6001 inhibitor was used in 25 μM final concentration. Reactions were stopped at either 30′, 1 h, 4 h or after overnight incubation at 37° C. with the addition of SDS-PAGE Sample Buffer and heating to 100° C. for 10 minutes. Sensor was detected on Western Blot with the anti-GFP antibody.
# [1] = tested on: human auto-activating MMP-9; experiment: In vitro cleavage of the biosensor in HEK293 lysate by auto-activating MMP-9, western blot; type: biochemical; details: inhibitor 25 μM final concentration
smiles,measurement,setting,value
CNC(=O)[C@H](Cc1c[nH]c2ccccc12)NC(=O)[C@@H](CC(=O)NO)CC(C)C [GM6001],effect of inhibitor on baseline cleavage of the biosensor,HEK293 cell lysate,"at least partially, blocked"
same,effect of inhibitor on biosensor cleavage by auto-activating MMP-9,[1],blocked
